Experimental data taken from EP0938471B1, “THE PREPARATION AND USE OF ORTHO-SULFONAMIDO ARYL HYDROXAMIC ACIDS AS MATRIX METALLOPROTEINASE AND TACE INHIBITORS” (priority 1996, dated 1998).
Where a name gives a salt, the structure may show the parent alone. Read-outs that look alike come from different tables or passages of the source.

Tests used:
Format in all cases: biochemical
[1] = molecular target: TACE (Homo sapiens, UniProt P78536); assay: TACE inhibition (fluorescent peptidyl substrate); details: for inhibition at 1 µM: at 1µM concentration
Chain of TACE (P78536 215-824): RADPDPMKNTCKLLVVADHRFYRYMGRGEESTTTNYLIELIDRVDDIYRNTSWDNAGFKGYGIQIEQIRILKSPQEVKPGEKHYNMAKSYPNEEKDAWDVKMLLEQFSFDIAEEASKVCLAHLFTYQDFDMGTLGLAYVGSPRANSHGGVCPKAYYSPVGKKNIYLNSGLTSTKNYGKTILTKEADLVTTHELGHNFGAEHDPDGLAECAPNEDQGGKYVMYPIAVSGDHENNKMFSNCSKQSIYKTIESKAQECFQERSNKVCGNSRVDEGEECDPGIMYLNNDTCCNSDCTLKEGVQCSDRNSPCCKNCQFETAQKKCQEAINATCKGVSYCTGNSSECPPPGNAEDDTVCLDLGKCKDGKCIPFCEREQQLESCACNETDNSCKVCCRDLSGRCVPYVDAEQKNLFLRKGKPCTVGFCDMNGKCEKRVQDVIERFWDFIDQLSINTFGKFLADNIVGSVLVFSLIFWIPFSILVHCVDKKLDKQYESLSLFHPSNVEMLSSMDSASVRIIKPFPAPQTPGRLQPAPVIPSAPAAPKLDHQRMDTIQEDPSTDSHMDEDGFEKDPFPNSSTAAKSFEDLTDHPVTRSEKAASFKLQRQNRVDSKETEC

[2] = molecular target: T1, MMP-1 (Homo sapiens, UniProt P03956); assay: MMP-1 inhibition (thiopeptide or fluorescent peptide substrate assay); details: for IC50: read-out: MMP-1 IC50; for inhibition at 1 µM: read-out: MMP-1 % inhibition, footnote: 1µM; for MMP-1 % inhibition: concentration given as (10), unit not given
T1 sequence (P03956 100-469): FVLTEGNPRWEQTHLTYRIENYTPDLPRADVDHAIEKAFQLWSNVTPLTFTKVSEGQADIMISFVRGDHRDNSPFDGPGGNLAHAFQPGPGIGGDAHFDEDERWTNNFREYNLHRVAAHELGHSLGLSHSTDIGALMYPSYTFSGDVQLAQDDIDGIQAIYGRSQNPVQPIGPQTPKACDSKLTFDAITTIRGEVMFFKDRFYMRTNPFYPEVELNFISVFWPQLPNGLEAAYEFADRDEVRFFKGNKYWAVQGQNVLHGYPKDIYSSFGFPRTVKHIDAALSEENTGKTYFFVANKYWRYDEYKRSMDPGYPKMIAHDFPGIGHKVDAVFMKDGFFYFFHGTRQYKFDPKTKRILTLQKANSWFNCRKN

[3] = molecular target: MMP-9 (Homo sapiens, UniProt P14780); assay: MMP-9 inhibition (thiopeptide or fluorescent peptide substrate assay); details: for IC50: read-out: MMP-9 IC50; for inhibition at 1 µM: read-out: MMP-9 % inhibition, footnote: 1µM
Chain of MMP-9 (P14780 94-707): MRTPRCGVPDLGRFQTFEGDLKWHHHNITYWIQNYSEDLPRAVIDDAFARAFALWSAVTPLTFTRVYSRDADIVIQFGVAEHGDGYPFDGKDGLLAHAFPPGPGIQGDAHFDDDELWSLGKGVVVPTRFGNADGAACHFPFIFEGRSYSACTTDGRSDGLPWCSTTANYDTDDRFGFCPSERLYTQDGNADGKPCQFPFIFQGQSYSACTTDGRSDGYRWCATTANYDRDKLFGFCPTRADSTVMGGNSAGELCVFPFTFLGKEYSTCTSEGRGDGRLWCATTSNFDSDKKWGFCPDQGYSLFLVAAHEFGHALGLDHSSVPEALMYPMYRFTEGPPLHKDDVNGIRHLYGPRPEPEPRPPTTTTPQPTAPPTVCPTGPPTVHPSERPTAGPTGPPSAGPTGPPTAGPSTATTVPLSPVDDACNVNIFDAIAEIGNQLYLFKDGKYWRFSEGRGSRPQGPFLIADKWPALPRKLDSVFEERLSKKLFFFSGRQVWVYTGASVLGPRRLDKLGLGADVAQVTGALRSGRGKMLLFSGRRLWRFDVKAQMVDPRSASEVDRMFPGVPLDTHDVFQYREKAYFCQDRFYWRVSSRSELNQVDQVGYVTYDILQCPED
Description: The enzyme activity is measured by the rate of the color increase. The thiopeptide substrate is made up fresh as a 20 mM stock in 100% DMSO and the DTNB is dissolved in 100% DMSO as a 100 mM stock and stored in the dark at room temperature. Both the substrate and DTNB are diluted together to 1 mM with substrate buffer (50 mM HEPES pH 7.5, 5 mM CaCl2) before use. […] Alternatively, a fluorescent peptide substrate is used. In this assay, the peptide substrate contains a fluorescent group and a quenching group. Upon cleavage of the substrate by an MMP, the fluorescence that is generated is quantitated on the fluorescence plate reader. […] The substrate is dissolved in methanol and stored frozen in 1 mM aliquots. For the assay, substrate and enzymes are diluted in HCBC buffer to the desired concentrations. Compounds are added to the 96 well plate containing enzyme and the reaction is started by the addition of substrate. […] For either the thiopeptide or fluorescent peptide assays, the slope of the line is calculated and represents the reaction rate. […] The mean (x±sem) of the control rate is calculated and compared for statistical significance (p<0.05) with drug-treated rates using Dunnett's multiple comparison test.

[4] = molecular target: MMP-13 (Homo sapiens, UniProt P45452); assay: MMP-13 inhibition (thiopeptide or fluorescent peptide substrate assay); details: for inhibition at 1 µM: read-out: MMP-13 % inhibition, footnote: 1µM; for MMP-13 % inhibition: concentration given as (.1), unit not given

COc1ccc(S(=O)(=O)N(Cc2ccc(CN(C)C)cc2)c2c(C)cccc2C(=O)NO)cc1 [Example 378, 2-[(4-Dimethylaminomethyl-benzyl)-(4-methoxy-benzenesulfonyl)-amino]-N-hydroxy-3-methyl-benzamide]
IC50 ([1]; read-out: TACE IC50): 243 nM
IC50 [2]: 213 nM
IC50 [3]: 2.9 nM
IC50 ([4]; read-out: MMP-13 IC50): 11 nM

CCN(CC)CC#CCN(c1c(C)cccc1C(=O)NO)S(=O)(=O)c1ccc(OC)cc1 [Example 381, 2-[(4-Diethylamino-but-2-ynyl)-(4-methoxy-benzenesulfonyl)-amino]-N-hydroxy-3-methyl-benzamide]
IC50 ([1]; read-out: TACE IC50): 218 nM
IC50 [2]: 470 nM
IC50 [3]: 11 nM
IC50 ([4]; read-out: MMP-13 IC50): 19 nM

CCOC(=O)CCCN(c1c(C)cccc1C(=O)NO)S(=O)(=O)c1ccc(OC)cc1 [Example 383, 4-[(2-Hydroxycarbamoyl-6-methyl-phenyl)-(4-methoxy-benzenesulfonyl)-amino]-butyric acid ethyl ester]
inhibition at 1 µM [1]: 45%
inhibition at 1 µM [2]: 34%
inhibition at 1 µM [3]: 87%
inhibition at 1 µM [4]: 48%

CCOC(=O)CCCCN(c1c(C)cccc1C(=O)NO)S(=O)(=O)c1ccc(OC)cc1 [Example 384, 5-[(2-Hydroxycarbamoyl-6-methyl-phenyl)-(4-methoxy-benzenesulfonyl)-amino]-pentanoic acid ethyl ester]
inhibition at 1 µM [1]: 55%
inhibition at 1 µM [2]: 48%
inhibition at 1 µM [3]: 52%
inhibition at 1 µM [4]: 61%

COc1ccc(S(=O)(=O)N(CC(=O)OCc2ccccc2)c2c(C)cccc2C(=O)NO)cc1 [Example 385, [(2-Hydroxycarbamoyl-6-methyl-phenyl)-(4-methoxy-benzenesulfonyl)-amino]-acetic acid benzyl ester]
inhibition at 1 µM [1]: 56%
inhibition at 1 µM [2]: 25%
inhibition at 1 µM [3]: 65%
inhibition at 1 µM [4]: 66%

COc1ccc(S(=O)(=O)N(CC(=O)NCc2ccccn2)c2c(C)cccc2C(=O)NO)cc1 [Example 386, N-Hydroxy-2-[[(4-methoxyphenyl)sulfonyl][2-oxo-2-[(2-pyridinylmethyl)amino]ethyl]amino]-3-methylbenzamide]
inhibition at 1 µM [1]: 46%
inhibition at 1 µM [2]: 21%
MMP-9 % inhibition ([3]; concentration given as (.1), unit not given): 16%(.1)
MMP-13 % inhibition [4]: 11%(.1)

COc1ccc(S(=O)(=O)N(CC(=O)N2CCN(C)CC2)c2c(C)cccc2C(=O)NO)cc1 [Example 387, N-Hydroxy-2-{(4-methoxy-benzenesulfonyl)-[2-(4-methyl-piperazin-1-yl)-2-oxo-ethyl]-amino}-3-methyl-benzamide]
inhibition at 1 µM [1]: 38%
IC50 [2]: 2720 nM
IC50 [3]: 96 nM
IC50 ([4]; read-out: MMP-13 IC50): 307 nM

COc1ccc(S(=O)(=O)N(CCO)c2c(C)cccc2C(=O)NO)cc1 [Example 388, N-Hydroxy-2-[(2-hydroxy-ethyl)-(4-methoxy-benzenesulfonyl)-amino]-3-methyl-benzamide]
inhibition at 1 µM [1]: 35%
MMP-1 % inhibition [2]: 66%(10)
inhibition at 1 µM [3]: 47%
inhibition at 1 µM [4]: 39%

COc1ccc(S(=O)(=O)N(Cc2ccccc2)c2c(C)cc(N(C)C)cc2C(=O)NO)cc1 [Example 389, 2-[Benzyl-(4-methoxy-benzenesulfonyl)-amino]-5-dimethylamino-N-hydroxy-3-methyl-benzamide]
IC50 ([1]; read-out: TACE IC50): 633 nM
IC50 [2]: 63 nM
IC50 [3]: 2 nM
IC50 ([4]; read-out: MMP-13 IC50): 39 nM

COc1ccc(S(=O)(=O)N(Cc2ccc(OCCN3CCCCC3)cc2)c2c(C)cccc2C(=O)NO)cc1 [Example 393, N-Hydroxy-2-[[(4-methoxyphenyl)sulfonyl][[4-[2-(1-piperidinyl)ethoxy]phenyl]methyl]amino]-3-methylbenzamide]
IC50 [1]: 277 nM
IC50 [2]: 176 nM
IC50 [3]: 6.9 nM
IC50 [4]: 56 nM

CCN(CC)CCOc1ccc(CN(c2c(C)cccc2C(=O)NO)S(=O)(=O)c2ccc(OC)cc2)cc1 [Example 394, 2-[[4-(2-Diethylamino-ethoxy)-benzyl]-(4-methoxy-benzenesulfonyl)-amino]-N-hydroxy-3-methyl-benzamide]
IC50 ([1]; read-out: TACE IC50): 215 nM
IC50 [2]: 96 nM
IC50 [3]: 2.3 nM
IC50 ([4]; read-out: MMP-13 IC50): 8.8 nM

COc1ccc(S(=O)(=O)N(Cc2ccc(OCCN3CCCCC3)cc2)c2c(C)cc(Br)cc2C(=O)NO)cc1 [Example 395, 5-Bromo-N-hydroxy-2-{(4-methoxy-benzenesulfonyl)-[4-(2-piperidin-1-yl-ethoxy)-benzyl]-amino}-3-methyl-benzamide]
IC50 ([1]; read-out: TACE IC50): 108 nM
IC50 [2]: 35 nM
IC50 [3]: 2.3 nM
IC50 ([4]; read-out: MMP-13 IC50): 3.1 nM

COc1ccc(S(=O)(=O)N(Cc2ccc(C(=O)NCCN3CCCCC3)cc2)c2c(C)cccc2C(=O)NO)cc1 [Example 396]
IC50 ([1]; read-out: TACE IC50): 363 nM
IC50 [2]: 184 nM
IC50 [3]: 6.3 nM
IC50 ([4]; read-out: MMP-13 IC50): 35 nM

COc1ccc(-c2ccc(-c3cc(C)c(N(Cc4cccnc4)S(=O)(=O)c4ccc(OC)cc4)c(C(=O)NO)c3)cc2)cc1 [Example 399, 4"-Methoxy-4-[(4-methoxy-benzenesulfonyl)-pyridin-3-ylmethyl-amino]-5-methyl-[1,1';4',1"]terphenyl-3-carboxylic acid hydroxyamide hydrochloride salt]
inhibition at 1 µM [1]: 25%
IC50 [2]: 2200 nM
IC50 [3]: 45 nM
IC50 ([4]; read-out: MMP-13 IC50): 41 nM

COc1ccc(S(=O)(=O)N(Cc2cccnc2)c2c(C)cc(-c3cccc([N+](=O)[O-])c3)cc2C(=O)NO)cc1 [Example 400, 4-[(4-Methoxy-benzenesulfonyl)-pyridin-3-ylmethyl-amino]-5-methyl-3'-nitro-biphenyl-3-carboxylic acid hydroxyamide hydrochloride salt]
IC50 ([1]; read-out: TACE IC50): 231 nM
IC50 [2]: 295 nM
IC50 [3]: 6 nM
IC50 ([4]; read-out: MMP-13 IC50): 4.9 nM

COc1ccc(-c2cc(C)c(N(Cc3cccnc3)S(=O)(=O)c3ccc(OC)cc3)c(C(=O)NO)c2)cc1 [Example 401, 4'-Methoxy-4-[(4-methoxy-benzenesulfonyl)-pyridin-3-ylmethyl-amino]-5-methyl-biphenyl-3-carboxylic acid hydroxyamide hydrochloride salt]
IC50 ([1]; read-out: TACE IC50): 146 nM
IC50 [2]: 176 nM
IC50 [3]: 1.4 nM
IC50 ([4]; read-out: MMP-13 IC50): 2.8 nM

COc1ccc(S(=O)(=O)N(Cc2cccnc2)c2c(C)cc(-c3cc4ccccc4s3)cc2C(=O)NO)cc1 [Example 402, 5-Benzo[b]thiophen-2-yl-N-hydroxy-2-[(4-methoxy-benzenesulfonyl)-pyridin-3-ylmethyl-amino]-3-methyl-benzamide hydrochloride salt]
IC50 ([1]; read-out: TACE IC50): 639 nM
IC50 [2]: 543 nM
IC50 [3]: 2.6 nM
IC50 ([4]; read-out: MMP-13 IC50): 8.5 nM

COc1ccc(S(=O)(=O)N(Cc2cccnc2)c2c(C)cc(-c3ccc(OC(F)(F)F)cc3)cc2C(=O)NO)cc1 [Example 404, 4-[(4-Methoxy-benzenesulfonyl)-pyridin-3-ylmethyl-amino]-5-methyl-4'-trifluoromethoxy-biphenyl-3-carboxylic acid hydroxyamide hydrochloride salt]
inhibition at 1 µM [1]: 54%
IC50 [2]: 1800 nM
IC50 [3]: 5.9 nM
IC50 ([4]; read-out: MMP-13 IC50): 9.5 nM

COc1ccc(S(=O)(=O)N(Cc2cccnc2)c2c(C)cc(-c3ccc4c(c3)OCO4)cc2C(=O)NO)cc1 [Example 405, 5-Benzo[1,3]dioxol-5-yl-N-hydroxy-2-[(4-methoxy-benzenesulfonyl)-pyridin-3-ylmethyl-amino]-3-methyl-benzamide hydrochloride salt]
IC50 ([1]; read-out: TACE IC50): 151 nM
IC50 [2]: 176 nM
IC50 [3]: 4.1 nM
IC50 ([4]; read-out: MMP-13 IC50): 5.8 nM

Cc1cccc(C(=O)NO)c1N(Cc1cccnc1)S(=O)(=O)c1ccc(-c2ccc(C(F)(F)F)cc2)cc1 [Example 410, N-Hydroxy-3-methyl-2-[pyridin-3-ylmethyl-(4'-trifluoromethyl-biphenyl-4-sulfonyl)-amino]-benzamide]
inhibition at 1 µM [1]: 2%
MMP-1 % inhibition [2]: 47%(10)
inhibition at 1 µM [3]: 28%
MMP-13 % inhibition [4]: 40%(.1)

COc1ccc(-c2ccc(S(=O)(=O)N(Cc3cccnc3)c3c(C)cccc3C(=O)NO)cc2)c(OC)c1 [Example 411, 2-[(2',4'-Dimethoxy-biphenyl-4-sulfonyl)-pyridin-3-ylmethyl-amino]-N-hydroxy-3-methyl-benzamide]
inhibition at 1 µM [1]: 9%
MMP-1 % inhibition [2]: 32%(10)
inhibition at 1 µM [3]: 39%
inhibition at 1 µM [4]: 44%

Cc1cccc(C(=O)NO)c1N(Cc1cccnc1)S(=O)(=O)c1ccc(-c2cccs2)cc1 [Example 412, N-Hydroxy-3-methyl-2-[pyridin-3-ylmethyl-(4-thiophen-2-yl-benzenesulfonyl)-amino]-benzamide]
inhibition at 1 µM [1]: 3%
MMP-1 % inhibition [2]: 69%(10)
inhibition at 1 µM [3]: 44%
MMP-13 % inhibition [4]: 42%(.1)

C#Cc1ccc(S(=O)(=O)N(Cc2cccnc2)c2c(C)cccc2C(=O)NO)cc1 [Example 413, 2-[(4-Ethynyl-benzenesulfonyl)-pyridin-3-ylmethyl-amino]-N-hydroxy-3-methyl-benzamide]
inhibition at 1 µM [1]: 43%
IC50 [2]: 529 nM
IC50 [3]: 55 nM
IC50 ([4]; read-out: MMP-13 IC50): 75 nM

Cc1cccc(C(=O)NO)c1N(Cc1cccnc1)S(=O)(=O)c1ccc(-c2cc3ccccc3s2)cc1 [Example 414, 2-[(4-Benzo[b]thiophen-2-yl-benzenesulfonyl)-pyridin-3-ylmethyl-amino]-N-hydroxy-3-methyl-benzamide]
inhibition at 1 µM [1]: 6%
MMP-1 % inhibition [2]: 29%(10)
inhibition at 1 µM [3]: 68%
IC50 ([4]; read-out: MMP-13 IC50): 38 nM
